Results: patent US12486218B2, “Compounds advantageous in the treatment of central nervous system diseases and disorders” (AurimMed Pharma, Inc., priority 2008, dated 2025)

Columns and labels:
mice [1] = experiment: Subcutaneous Metrazol Seizure threshold (s.c. MET) test, mice i.p.; type: in vivo; conditions: for s.c. MET, fraction of animals: mice i.p.; for activity in the s.c. MET test: mice, at 300 mg/kg
mice [2] = experiment: Minimal motor impairment (MID50), mice i.p.; conditions: mice i.p.
Method: The animal testing was performed according to methods known in the relevant art.

mice [3] = experiment: Maximal Electroshock Seizure (MES) test, mice i.p.; type: in vivo; conditions: for activity in the MES test: mice; for MES, fraction of animals: mice i.p.
SMN2 promoter = SMN2 promoter β-lactamase reporter assay in NSC34 motor neuron-like cells; type: cell-based; conditions: for SMN2 promoter activity: treatment for 19 hours at a concentration of 1 μM; for Promoter (SMN2 promoter test, summary YES/NO): Table 13 summary
Method: FIG. 30 illustrates a screen for SMN2 expression of a number of compounds described herein.
SMN2 promoter activity was measured using NSC34 motor neuron-like cells stably transfected with a β-lactamase (BLA) reporter gene under the control of a 3.4-kilobase fragment of the SMN2 promoter. D156844 was used as a positive control for this assay.

[4] = system: inclusion of exon 7 in SMN2 mRNAs; experiment: Exon 7 inclusion BLA reporter assay in NSC34 cell line; type: cell-based; conditions: for Exon 7 inclusion (summary YES/NO): Table 13 summary
From the text: To measure changes in the inclusion of exon 7 in SMN2 mRNAs, another NSC34 cell line was used that stably transfected with a reporter construct which expresses BLA when exon 7 is included in the SMN2 minigene mRNAs. 5-(N-ethyl-N-isopropyl)-amiloride (EIPA) was used as a positive control for this assay. Data for tis assay is illustrated in FIG. 30.

rats = experiment: Pilocarpine-induced Status Epilepticus in Rats (prevention; intervention @ 30 min); conditions: Rattus norvegicus
Method: The animal testing was performed using the protocols developed in the Anticonvulsant Screening Program (ASP) at the National Institute of Neurological Disorders and Stroke (NINDS), National Institutes of Health (NIH).

[5] = system: rat dopaminergic N27 cells; experiment: N27 protection assay against oxidative stress (H2O2 or MPP+; MTT and LDH); type: cell-based; conditions: drug 24 hours before 200 μM H2O2 or 640 μM MPP+
From the text: FIGS. 20A-25D data are shown illustrating neuroprotective and neuroregenerative effects observed in rat dopaminergic N27 cells. Rat dopaminergic N27 cells are commonly used in in vitro and in vivo model systems for studying Parkinson's disease. Parkinson's disease is a neurodegenerative disorder of the central nervous system that affects more than 6 million people worldwide. The motor symptoms of Parkinson's disease result from the death of dopamine generating cells in the substantia nigra, a region of the midbrain.
The N27 rat dopaminergic neuron cell line was harvested from E12 rat mesencephalic tissue and was transfected with SV40 to immortalize the cell line. The N27 cell line, when injected into the striata of 6-hydroxydopamine-lesioned rats (an animal model of PD) caused a time-dependent improvement in neurological deficits. This immortalized cell line has been carefully characterized in studies of dopamine biosynthesis, neurotoxicity and used as a dopaminergic neuron model studies.
The N27 in vitro Parkinson's disease model included a test of cell viability and cell toxicity in response to exposure to oxidative stress (e.g., either 200 μM H2O2 or 640 μM MPP+).
Cell viability was tested using the MTT assay. The MTT assay is a colorimetric analysis based on the activities of mitochondrial NAD(P)H-dependent cellular oxidoreductase enzymes. These enzymes are capable of reducing the tetrazolium dye, MTT [3-(4,5-dimethylthiazol-2-yl)-2,5-diphenyltetrazolium] bromide, to an insoluble formazan (purple). […] More viable cells equal more accumulation of the insoluble formazan dye.
Cell toxicity was tested using the […] (LDH) assay. Cells that are stressed secrete LDH. In general, the more cells are stressed, the LDH they secrete into their media. The LDH assay is a reliable colorimetric assay to measure quantitatively the […] (LDH) that is released into the cell culture media from damaged cells as a biomarker for cytotoxicity and cytolysis.
FIGS. 20A-25D present data from two types of assays: protection and recovery assays. In the protection assays, the drug candidate was applied to the cells at various concentrations for 24 hours, followed by the exposure to oxidative stress (either 200 μM H2O2 or 640 μM MPP+) for measuring neuroprotective effect. H2O2 provides a broad measure of oxidative stress, while MPP+ gives a more specific oxidative stress to dopaminergic neurons.
The protection assay results are shown in panels A-C of FIGS. 20-25 In the recovery assays, the cells were first damaged by exposure to H2O2 and then various concentrations of the drug were applied to the cells. The results for the recovery assays are shown the D panels of FIGS. 20-25.

mice [6] = experiment: 6 Hz (minimal clonic seizure) model, mice i.p.; type: in vivo; conditions: for 6 Hz (32 mA), fraction of animals: mice i.p.
[7] = NSC34 exon 7 BLA reporter cells
[8] = 0.5 h, read-out: Intervention @ 30 min, Protection
[9] = read-out: Prevention, Protection

Question: With CC(O)(CC(N)=O)c1cccc(OC(F)(F)F)c1 (racemic) [CD] as the compound, how does the “s.c. MET, fraction of animals” value (mice [1]; 30 mg/kg @ 0.5 hr) read?
Answer: Its value is 3/5@ 0.50.

Question: And the “s.c. MET, fraction of animals” value (mice [1]; 100 mg/kg @ 0.5 hr)?
Answer: Its value is 1/1 @ 0.5,.

Question: What about the “s.c. MET, fraction of animals” value (mice [1]; 100 mg/kg @ 4.0 hr) of the same compound?
Answer: The value was 1/1 @ 0.5,.

Question: And the “MID50, fraction of animals” value (mice [2]; 100 mg/kg @ 0.5 hr)?
Answer: The value was 1/8 @ 0.50 hr,.

Question: And the “MID50, fraction of animals” value (mice [2]; 300 mg/kg @ 0.5 hr)?
Answer: Its value is 4/4 @ 0.5.

Question: And the “MID50, fraction of animals” value (mice [2]; 300 mg/kg @ 4.0 hr)?
Answer: Its value is “hr & 2/2”.

Question: CC(CC(N)=O)c1ccc2c(c1)OCO2 (centres unmarked) [L, 3-(3,4-methylenedioxy-phenyl)butyramide] was tested. Which “activity in the MES test” value (mice [3]; at 300 mg/kg) did it give?
Answer: Its value is “activity”.

Question: And the “activity in the s.c. MET test” value (mice [1])?
Answer: Its value is “activity”.

Question: And the SMN2 promoter activity (SMN2 promoter)?
Answer: Its SMN2 promoter activity is “increased SMN2 promoter activity”.

Question: What about the “effect on the inclusion of exon 7 in SMN2 transcripts” value [4, 7] of the same compound?
Answer: Its value is “positive effect on the inclusion of exon 7”.

Question: And the “Exon 7 inclusion (summary YES/NO)” value [4]?
Answer: Its value is “YES”.

Question: And the responders at 600 mg/kg (rats; [8])?
Answer: The responders at 600 mg/kg was 29%.

Question: And the responders at 450 mg/kg (rats; [9])?
Answer: Its responders at 450 mg/kg is 100%.

Question: Which results are given for C[C@H](CC(N)=O)c1ccccc1 [Compound C, (R)-3-Phenylbutyramide]?
Answer: MES, fraction of animals (mice [3]; 100 mg/kg @ 0.5 hr): 1/6 @0.5 hr,; activity in the MES test (mice [3]; at 100 mg/kg): activity; MID50, fraction of animals (mice [2]; 100 mg/kg @ 0.5 hr): 1/8 @0.5 hr

Question: How did the “neuroprotective effect against H2O2 and MPP+ oxidative stresses (MTT and LDH assays)” value [5] turn out when CNC(=O)CC(C)(C)c1ccc(Cl)cc1 [Compound B, 3-(4-Chlorophenyl)-3,N-dimethylbutyramide] was run?
Answer: The value was “potent dose-dependent neuroprotective effects”.

Question: What about the “MID50, fraction of animals” value (mice [2]; 100 mg/kg @ 0.5 hr) of the same compound?
Answer: The value was 2/8 @0.5 hr.

Question: And the responders at 300 mg/kg (rats; [9])?
Answer: The responders at 300 mg/kg was 43%.

Question: With CC(CC(N)=O)c1ccc(-c2ccccc2)c(F)c1 (centres unmarked) [Compound AX, 3-(2-Fluoro-biphenyl-4-yl)butyramide] as the compound, how does the “6 Hz (32 mA), fraction of animals” value (mice [6]; 100 mg/kg @ 0.5 hr) read?
Answer: The value was 3/4.

Question: And the “6 Hz (32 mA), fraction of animals” value (mice [6]; 100 mg/kg @ 1.0 hr)?
Answer: Its value is 2/4.

Question: What about the “6 Hz (32 mA), fraction of animals” value (mice [6]; 100 mg/kg @ 2.0 hr) of the same compound?
Answer: Its value is 1/4 @.

Question: And the “activity in the 6 Hz (minimal clonic seizure) model” value (mice [6]; mice, at 100 mg/kg)?
Answer: The value was “activity”.

Question: And the “SMN2 promoter assay, particularly strong hits” value (SMN2 promoter; NSC34 BLA reporter cells)?
Answer: The value was “particularly strong hits”.

Question: And the “Promoter (SMN2 promoter test, summary YES/NO)” value (SMN2 promoter)?
Answer: The value was “YES”.

Question: And the SMN2 promoter activity (SMN2 promoter)?
Answer: The SMN2 promoter activity was “increased SMN2 promoter activity”.

Question: And the “effect on the inclusion of exon 7 in SMN2 transcripts” value [4, 7]?
Answer: The value was “positive effect on the inclusion of exon 7”.

Question: What about the “exon 7 test, particularly strong hits” value [4, 7] of the same compound?
Answer: The value was “Particularly strong hits”.

Question: What about the “Exon 7 inclusion (summary YES/NO)” value [4] of the same compound?
Answer: The value was “YES”.

Question: With CC(O)(CC(N)=O)c1cccc(C(F)(F)F)c1 (racemic) [CE] as the compound, how does the “MES, fraction of animals” value (mice [3]; 30 mg/kg @ 0.50 hr) read?
Answer: Its value is 1/1 @.

Question: What about the “s.c. MET, fraction of animals” value (mice [1]; 30 mg/kg @ 0.5 hr) of the same compound?
Answer: Its value is 1/5 @ 0.5 hr,.

Question: What about the “s.c. MET, fraction of animals” value (mice [1]; 100 mg/kg @ 0.5 hr) of the same compound?
Answer: Its value is 1/1 @ 0.5 hr,.

Question: And the “MID50, fraction of animals” value (mice [2]; 100 mg/kg @ 0.5 hr)?
Answer: Its value is 3/8 @ 0.5 hr,.

Question: What does the source list for Cc1cc(C(CC(N)=O)C2CC2)ccc1F (centres unmarked) [AO, 3-Cyclopropyl-3-(4-fluoro-3-methylphenyl)-propionamide]?
Answer: MES, fraction of animals (mice [3]; 100 mg/kg @ 0.5 hr): 1/3 @; activity in the MES test (mice [3]; at 100 mg/kg): activity; activity in the s.c. MET test (mice [1]): activity; neuroprotective effect against H2O2 and MPP+ oxidative stresses (MTT and LDH assays) [5]: statistically significant, dose-dependent neuroprotection; responders at 97 mg/kg (rats; [8]): 50%; responders at 65 mg/kg (rats; [9]): 86%

Question: What does the source list for COCCCNC(=O)CC(C)c1ccc(OC(F)(F)F)cc1 (centres unmarked) [BM, N-(3-Methoxy-propyl)-3-(4-trifluoromethoxy-phenyl)-butyramide]?
Answer: activity in the MES test (mice [3]; at 300 mg/kg): activity; activity in the s.c. MET test (mice [1]): activity; 6 Hz (32 mA), fraction of animals (mice [6]; 100 mg/kg @ 0.5 hr): 1/4 @ 0.5 hr; neuroprotective effect against H2O2 and MPP+ oxidative stresses (MTT and LDH assays) [5]: statistically significant, dose-dependent neuroprotection; SMN2 promoter activity (SMN2 promoter): increased SMN2 promoter activity

Question: Which results are given for Cc1nc(C)c(C(C)CC(N)=O)cc1C(C)CC(N)=O (mixture of isomers) [DA]?
Answer: neuroprotective effect against H2O2 and MPP+ oxidative stresses (MTT and LDH assays) [5]: statistically significant, dose-dependent neuroprotection; Promoter (SMN2 promoter test, summary YES/NO) (SMN2 promoter): YES; SMN2 promoter activity (SMN2 promoter): increased SMN2 promoter activity
